PMC4820820, “CETSA screening identifies known and novel thymidylate synthase inhibitors and slow intracellular activation of 5-fluorouracil” (Nature Communications, 2016)
Read-outs that look alike come from different tables or passages of the source.

Tests used:
[1] = biological target: T1, human thymidylate synthase (TS) (Homo sapiens, UniProt P04818); assay: CETSA primary screen / single-concentration retest, AlphaScreen, live K562 cells; format: cell-based
T1 construct: screening in live, non-engineered cells expressing thymidylate synthase; endogenous in cells; host or cells: K562 (human myelogenous leukemia) cells
Experimental: Compounds were placed in columns 1–22. […] At the day of the experiment the plates were allowed to thaw for 30 min followed by a brief centrifugation step (1,000 × g for 1 min) prior to removal of the seal. The compounds were then diluted with 20 μl supplemented cell culture medium using a Multidrop Combi reagent dispenser (Thermo Scientific). Finally 5 μl of the diluted compounds were transferred to a 384 well hardshell PCR plate (HSR480, BIORAD) using a Bravo liquid handling platform equipped with a 384-well head (Agilent). […] The final concentration of DMSO in the assay was 0.5% in all samples.
The screen procedure started with the addition of 5 μl of a suspension of K562 cells at a density of 10 million cells per ml to all wells of a 384 well hardshell PCR plate (HSR480, BIORAD) using an electronic multichannel pipette (Biohit). […] For the time-course experiments the incubation times were altered to include also 10 min, 30 min and 6 h. […] After the incubation step the plates were transiently heated at 50 °C for 3 min followed by a controlled cooling to 20 °C for 1 min using a real-time PCR machine (LightCycler480 system, Roche). Plate handling was then as described above for the thermal aggregation experiments. The data were analyzed using microsoft excel and GraphPad Prism 6.
A calculation of the average and standard error of means for each set of controls also allowed an illustration of how these responses varied over the 32 screening plates. The Z′ factor[38] is commonly used as a measure of how well the assay separates between the controls and this was calculated as described based on the calculated averages and standard deviations of the controls on a per plate basis. For the Tagg shift and the […] experiments the data were analyzed in GraphPad Prism using the Boltzmann sigmoid equation and the saturation binding curve (rectangular hyperbola; binding isotherm) function, respectively. As already discussed[14] these methods make use of equilibrium models for data analysis although the methodology depends on the irreversible aggregation of denatured material. For this reason we refer to the observed responses as apparent and isothermal dose-response fingerprints and are careful with any quantitative interpretations, being well aware of their dependency on experimental conditions. Experiments are on-going to address the quantitative interpretation of CETSA data.

TS in K562 cell lysates = biological target: T2, TS in K562 cell lysates (Homo sapiens, UniProt P04818); assay: Western blot CETSA on K562 cell lysates; format: binding
T2 construct: screening in live, non-engineered cells expressing thymidylate synthase; endogenous in cells; host or cells: K562 (human myelogenous leukemia) cells
Experimental: For the cell lysate thermal shift experiments, cultured K562 cells were harvested and washed with Hank's Balanced Salt Solution. The cells were diluted in lysis buffer supplemented with complete protease inhibitor cocktail. The cell suspensions were freeze-thawed three times using liquid nitrogen and passed through a 27″ gauge needle five times. The soluble fraction (lysate) was separated from the cell debris by centrifugation at 20,000 × g for 20 min at 4 °C. For the thermal aggregation curve experiments cell lysates were diluted with lysis buffer supplemented with 200 μM dUMP and divided into two aliquots, with one aliquot being treated with ligand and the other aliquot with vehicle (control). […] The supernatants containing the remaining soluble proteins were transferred to new 0.2 ml microtubes and analyzed by sodium dodecyl sulfate polyacrylamide gel electrophoresis (SDS-PAGE) followed by western blot analysis.
NuPage Novex Bis-Tris 4–12% polyacrylamide gels with NuPAGE MES SDS running buffer (Life Technologies) were used for separation of proteins in the samples. […] Chemiluminescence intensities were detected and quantified using a ChemiDoc XRS+ imaging system (Bio-Rad) with Image Lab software (Bio-Rad).

TS = TS (Homo sapiens, UniProt P04818); assay: TS enzyme inhibition assay; format: biochemical; design: His6 tag with TEV site (vector-encoded by pNIC28-Bsa4); made in house; host or cells: Rosetta BL21-DE3 Escherichia coli
Experimental: Enzymatic activity of recombinant human TS was measured spectrophotometrically at 340 nm by monitoring the absorbance change during the conversion of 5,10-methylenetetrahydrofolate to dihydrofolate using an Infinite M200 spectrometer (Tecan). Measurements were carried out at room temperature and in a buffer of 50 mM Tris at pH 7.5 and 150 mM NaCl. Initial velocities were measured with 250 nM of purified protein, 100 μM 5,10-methylenetetrahydrofolate and 100 μM dUMP in the presence of compounds using the same amount of DMSO as control. Initial rates and activity were analyzed with the software package Prism (GraphPad Software).
Decitabine at a concentration of 1 mM was incubated with 1 mg ml^−1 of recombinant DCK and 2.5 mM ATP in a buffer of 50 mM Tris at pH 7.5, 150 mM NaCl and 0.5 mM MgCl2 at room temperature for 60 min to generate the corresponding monophosphates. To probe for nucleotide deamination the samples were further treated with 1 mg ml^−1 of recombinant DCTD in the presence of 1 mM ATP and 10 μM ZnCl2 for 20 min at room temperature. After incubation, the samples were heated at 95 °C for 10 min and centrifuged for 10 min at the highest speed at 4 °C using a benchtop centrifuge. The supernatant was tested without dilution in thermal shift in vitro assays and the TS enzyme inhibition assay. The supernatants from samples without nucleoside were used as the treatment controls.

Chain of TS (P04818 whole entry): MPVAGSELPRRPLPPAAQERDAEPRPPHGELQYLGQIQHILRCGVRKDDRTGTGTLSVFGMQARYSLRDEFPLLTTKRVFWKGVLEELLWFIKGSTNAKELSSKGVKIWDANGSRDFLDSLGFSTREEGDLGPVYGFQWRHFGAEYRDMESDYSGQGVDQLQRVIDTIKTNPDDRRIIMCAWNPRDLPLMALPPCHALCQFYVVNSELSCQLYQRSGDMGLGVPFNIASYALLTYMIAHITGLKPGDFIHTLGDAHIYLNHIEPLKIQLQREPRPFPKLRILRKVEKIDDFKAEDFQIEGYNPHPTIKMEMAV
T2 sequence (P04818 2-313 limits assumed): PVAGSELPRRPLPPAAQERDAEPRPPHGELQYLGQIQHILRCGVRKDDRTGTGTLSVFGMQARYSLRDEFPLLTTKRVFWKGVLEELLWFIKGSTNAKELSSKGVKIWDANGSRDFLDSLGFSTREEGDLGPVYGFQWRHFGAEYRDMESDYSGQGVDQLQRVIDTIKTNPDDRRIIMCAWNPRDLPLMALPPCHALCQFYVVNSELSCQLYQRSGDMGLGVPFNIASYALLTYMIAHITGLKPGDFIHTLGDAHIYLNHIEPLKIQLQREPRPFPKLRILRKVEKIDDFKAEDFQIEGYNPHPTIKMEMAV
T1 sequence (P04818 2-313 limits assumed): as above

| Compound | % stabilization in screen at 50 µM ([1]; K562, 2 h; read-out: % stabilization in screen) | Tagg shift of TS in K562 cell lysates (TS in K562 cell lysates; 200 μM compound, lysate with 200 μM dUMP) | inhibition at 10 µM (TS; 10 μM compound, read-out: inhibition of TS enzymatic activity) | inhibition of TS enzymatic activity (TS; 100 μM compound) | % stabilization in screen at 50 µM ([1]; K562, 2 h, read-out: % stabilization in screen) | stabilization of TS in treated K562 lysates (TS in K562 cell lysates; 200 µM decitabine) | inhibition in TS enzymatic assay (TS; decitabine sample after DCK treatment) | inhibition in TS enzymatic assay (TS; decitabine sample after treatment with both DCK and DCTD) |
| --- | --- | --- | --- | --- | --- | --- | --- | --- |
| Cc1cc(O)nc2sc(C(=O)c3ccccc3)c(N)c12 [CBK115334, 3-amino-2-benzoyl-4-methylthieno(2,3-b)pyridin-6-ol] | 20% | 3.7 °C | 60% | near complete inhibition | – | – | – | – |
| Nc1ncn([C@H]2C[C@H](O)[C@@H](CO)O2)c(=O)n1 [decitabine, 5-Aza-deoxycytidine] | – | – | – | – | 91% | not stabilized | minor inhibition | near full inhibition |
